From patent publication US10144730B2, “Inhibitors of c-Jun-N-terminal kinase (JNK)” (Dana-Farber Cancer Institute, Inc., priority 2011, dated 2018)

Key:
Assay type in all cases: cell-based
[1] = tested on: NF-kB nuclear translocation; experiment: High-throughput microscopy, NF-kB nuclear translocation; conditions: Homo sapiens, A-375, A375 cells, TNF-α stimulation, read-out: Cellular EC50 NF-kB
Procedure: (§1) A375 cells were stimulated with anisomycin (FIGS. 14A and 14C to 14F), IGF-1 (FIG. 14B), IL-6 (FIG. 14G), and TNF-α (FIG. 14H) for sixty minutes. The output of multiple signaling pathways was measured using high throughput microscopy at multiple concentrations of four JNK inhibitors and a control compound specific to each pathway DMSO (FIG. 14A), MK2206 (allosteric Akt inhibitor, Haoyuan Chemexpress Co., Limited. Hirai, et al., 2010) (FIG. 14B), PD0325901 (allosteric Mek inhibitor, Haoyuan Chemexpress Co., Limited. Barrett, et al., 2008) (FIGS. 14C and 14D), SB239063 (ATP-competitive p38 inhibitor, Haoyuan Chemexpress Co., Limited. Underwood et al., 2000) (FIGS. 14E and 14F), KIN001-040 (ATP-competitive JAK1,2,3 inhibitor, Haoyuan Chemexpress Co., Limited. Thompson et al., 2002) (FIG. 14G), and KIN001-208 (IKK inhibitor VIII, Haoyuan Chemexpress Co., Limited., Murata, et al., 2004) (FIG. 14H).
(§2) Cells were plated at 7500 cells/well in 96-well microscopy plates (Corning) in recommended media for 24 hours, and then starved in media lacking serum for 16 hours. Cells were pre-treated for 180 minutes with 10-fold stock solutions of JNK inhibitors and for 10 min with control compounds MK2206, PD0325901, SB239063, KIN040, and KIN208 and treated with 10-fold stock solutions of IGF-1, IL-6, TNF-α (all PeproTech), or anisomycin for 60 minutes. Cells were fixed in 2% paraformaldehyde for 10 min at room temperature and washed with PBS-T (Phosphate Buffered Saline, 0.1% Tween 20). Cells were permeabilized in methanol for 10 min at room temperature, washed with PBS-T, and blocked in Odyssey Blocking Buffer (LI-COR Biosciences) for 1 hour at room temperature. Cells were incubated overnight at 4° C. with antibody specific for Erk1/2(pT202/pY204), Akt(pS473), c-Jun(pS73), pP38(T180/Y182) and pSTAT3(Y705) (Cell Signaling Technology), pRSK1(S380) and pMSK1(S376) (Epitomics), and NF-κB (Santa Cruz Biotechnology) diluted 1:400 in Odyssey Blocking Buffer. Cells were washed three times in PBS-T and incubated with rabbit-specific secondary antibody labeled with Alexa Fluor 647 (Invitrogen) diluted 1:2000 in Odyssey Blocking Buffer. Cells were washed once in PBS-T and once in PBS and incubated in 250 ng/ml Hoechst 33342 (Invitrogen) and 1:1000 Whole Cell Stain (blue; Thermo Scientific) solution. Cells were washed twice with PBS and imaged in an imageWoRx high-throughput microscope (Applied Precision). Data were plotted using DataPflex. […]

phosphorylation of Akt = experiment: High-throughput microscopy, phosphorylation of Akt; conditions: Homo sapiens, A-375, A375 cells, IGF-1 stimulation, read-out: Cellular EC50 pAkt
Procedure: as §1, §2

phosphorylation of Erk = experiment: High-throughput microscopy, phosphorylation of Erk; conditions: Homo sapiens, A-375, A375 cells, anisomycin stimulation, read-out: Cellular EC50 pErk
Procedure: as §1, §2

phosphorylation of Msk1 = experiment: High-throughput microscopy, phosphorylation of Msk1; conditions: Homo sapiens, A-375, A375 cells, anisomycin stimulation, read-out: Cellular EC50 pMSK1
Procedure: A375 cells were stimulated with anisomycin (FIGS. 14A and 14C to 14F), IGF-1 (FIG. 14B), IL-6 (FIG. 14G), and TNF-α (FIG. 14H) for sixty minutes.
Cells were fixed in 2% paraformaldehyde for 10 min at room temperature and washed with PBS-T (Phosphate Buffered Saline, 0.1% Tween 20). Cells were permeabilized in methanol for 10 min at room temperature, washed with PBS-T, and blocked in Odyssey Blocking Buffer (LI-COR Biosciences) for 1 hour at room temperature. Cells were incubated overnight at 4° C. with antibody specific for Erk1/2(pT202/pY204), Akt(pS473), c-Jun(pS73), pP38(T180/Y182) and pSTAT3(Y705) (Cell Signaling Technology), pRSK1(S380) and pMSK1(S376) (Epitomics), and NF-κB (Santa Cruz Biotechnology) diluted 1:400 in Odyssey Blocking Buffer. […] Cells were washed twice with PBS and imaged in an imageWoRx high-throughput microscope (Applied Precision). Data were plotted using DataPflex.

phosphorylation of STAT3 = experiment: High-throughput microscopy, phosphorylation of STAT3; conditions: Homo sapiens, A-375, A375 cells, IL-6 stimulation, read-out: Cellular EC50 pSTAT3
Procedure: as §1, §2

Measured: EC50

Cc1cc(NC(=O)c2cccc(NC(=O)/C=C/CN(C)C)c2)ccc1Nc1nccc(-c2cccnc2)n1 [JNK-IN-8]
> 10 µM: all assays above

CN(C)C/C=C/C(=O)Nc1cccc(C(=O)Nc2ccc(Nc3nccc(/C(C#N)=C4\Nc5ccccc5S4)n3)cc2)c1 [JNK-IN-12]
> 10 µM: all assays above
